`N#Cc1c(-c2ccc(N(CCF)c3nc(C(F)(F)F)cs3)cc2)n(C2CCC2)c2cc(OCCF)ccc12` [Compound 3188]: the melting point was in the range of 137 to 138 °C.

For `CC(OC(=O)Nc1ccc(-c2c(C#N)c3ccc(Oc4ncccn4)cc3n2C2CCC2)cc1)C(F)(F)F` (stereo not shown) [Compound 2707], the melting point lay within 211 to 213 °C.

The compound `CC(C)NC(=O)Nc1ccc(-c2c(C#N)c3ccc(N4CCOCC4)cc3n2C2CC2)cc1` [Compound 2855] returned a melting point of 264 °C.

In turn, `C[C@@H](OC(=O)Nc1ccc(-c2c(C#N)c3ccc(OC4CCOCC4)cc3n2C2CC2)cc1)C1CC1` [Compound 2712] gave a melting point of 149 to 151 °C.

On to `C[C@@H](NC(=O)Nc1ccc(-c2c(C#N)c3ccc(Oc4ncccn4)cc3n2C2CCC2)cc1)c1ccc(F)cc1` [Compound 2819], for which the melting point is 150 °C (dec.).

Compound `CCn1c(-c2ccc(NC(=O)OCC(C)C)cc2)c(C#N)c2ccc(OCCOC)cc21` [Compound 1370] displayed a melting point of 145 to 148 °C.

`CCOc1ccc2c(C#N)c(-c3ccc(NC(=O)NCc4ccco4)cc3)n(C3CCC3)c2c1` [Compound 1396] registered a melting point of 192 to 198 °C.

The compound `CC(OC(=O)Nc1ccc(-c2c(C#N)c3ccc(OC4CCOC4)cc3n2C2CCC2)cc1)C(F)(F)F` (stereo not shown) [Compound 1457] had a melting point of 183 to 184 °C.

As to `N#Cc1c(-c2ccc(N3CCCS3(=O)=O)cc2)n(C2CCC2)c2cc(OC3CCOCC3)ccc12` [Compound 2749], the melting point fell in the range of 224 to 226 °C.

Consider `COCCOc1ccc2c(C#N)c(-c3ccc(NC(=O)O[C@H](C)C4CC4)cc3)n(C3CCC3)c2c1` [Compound 2702], for which the melting point lay in the range of 116 to 117 °C.

In turn, `CCCCNC(=O)Oc1ccc(-c2c(C#N)c3ccc(OC4CCOCC4)cc3n2CC2CC2)cc1` [Compound 2783] had a melting point of 146 to 147 °C.

With `N#Cc1c(-c2ccc(N3CCCS3(=O)=O)cc2)n(C2CCC2)c2cc(N3CCOCC3)ccc12` [Compound 2914], the melting point lay in the range of 290 to 292 °C.

Take `CC(OC(=O)Nc1ccc(-c2c(C#N)c3ccc(OC4CCOC4)cc3n2C2CCC2)cc1)C1CCCC1` (stereo not shown) [Compound 1460]: the melting point lay in the range of 183 to 184 °C.

In turn, `C[C@@H](OC(=O)Nc1ccc(-c2cc3ccc(Oc4nccnc4C#N)cc3n2CC2CC2)cc1)C(F)(F)F` [Compound 3284] displayed a melting point of 99 to 101 °C.

For `CC(C)C(OC(=O)Nc1ccc(-c2c(C#N)c3ccc(OC4CCOC4)cc3n2C2CCC2)cc1)C(C)C` (stereo not shown) [Compound 1454], the melting point was in the range of 183 to 184 °C.

Compound `CCCS(=O)(=O)Nc1ccc(-c2c(C#N)c3ccc(Oc4ncccc4C#N)cc3n2C2CCC2)c(OC)c1` [Compound 3344] yielded a melting point of 227 to 230 °C.

In the case of `CCOc1ccc(-c2c(C#N)c3ccc(N4CCN(C)CC4)cc3n2CC)cc1` [Compound 1338], the melting point fell in the range of 186 to 187 °C.

Compound `CCn1c(-c2ccc(NS(=O)(=O)CC)cc2)c(C#N)c2ccc(C(=O)O)cc21` [Compound 1344] showed a melting point of 294 to 296 °C.

`Cc1csc(Nc2ccc(-c3c(C#N)c4ccc(Oc5ncccn5)cc4n3C3CCC3)cc2)n1` [compound 3180, 1-cyclobutyl-2-[4-(4-methyl-thiazol-2-ylamino)-phenyl]-6-(pyrimidin-2-yloxy)-1H-indole-3-carbonitrile]: the melting point fell in the range of 223 to 225 °C.

`C[C@@H](OC(=O)Nc1ccc(-c2c(C#N)c3ccc(OC4CCS(=O)(=O)CC4)cc3n2C2CCC2)cc1)C1CC1` [Compound 3186] had a melting point of 226 to 231 °C.

As to `CC(C)(C)OC(=O)Nc1ccc(-c2c(C#N)c3ccc(OCS(C)(=O)=O)cc3n2C2CCCC2)cc1` [Compound 3066], the melting point lay in the range of 237 to 241 °C.

`CCOc1ccc2c(C#N)c(-c3ccc(NCCc4ccccn4)cc3)n(C3CCC3)c2c1` [compound 1433, 1-cyclobutyl-6-ethoxy-2-[4-(2-pyridin-2-yl-ethylamino)-phenyl]-1H-indole-3-carbonitrile] had a melting point of 153 to 156 °C.

In turn, `CSCCOc1ccc2c(C#N)c(-c3ccc(NC(=O)OC(C)C)cc3)n(C3CCC3)c2c1` [Compound 2700] displayed a melting point of 132 to 133 °C.

`CC(C)n1c(-c2ccc(NC(=O)O[C@H](C)C3CC3)cc2)c(C#N)c2ccc(O[C@@H]3CCOC3)cc21` [Compound 2743] returned a melting point of 151 to 153 °C.

`CC(OC(=O)Nc1ccc(-c2c(C#N)c3ccc(OC4CCOC4)cc3n2C2CCC2)cc1)C1CC1` (stereo not shown) [Compound 1453] gave a melting point of 183 to 184 °C.

Consider `Cc1cc(Nc2ccc(-c3c(C#N)c4ccc(Oc5nccnc5C#N)cc4n3C3CCC3)cc2)n(C)n1` [Compound 3286], for which the melting point was 233 to 235 °C.

Compound `CCCNC(=O)Oc1ccc(-c2c(C#N)c3ccc(OC4CCOCC4)cc3n2CC2CC2)cc1` [Compound 2781] had a melting point of 147 to 148 °C.

For `CC(C)n1c(-c2ccc(N(S(C)(=O)=O)S(C)(=O)=O)cc2)c(C#N)c2ccc(OC(F)F)cc21` [Compound 1342], the melting point was 232 to 234 °C.

As for `CC(C)OC(=O)Nc1c(F)cc(-c2c(C#N)c3ccc(OCCF)cc3n2C2CCC2)cc1F` [Compound 3039], the melting point lay within 150 to 155 °C.

As to `CCOc1ccc2c(C#N)c(-c3ccc(NC(=O)OCCOCCOC)cc3)n(C3CCC3)c2c1` [compound 1424, [4-(3-cyano-1-cyclobutyl-6-ethoxy-1H-indol-2-yl)-phenyl]-carbamic acid 2-(2-methoxyethoxy)-ethyl ester], the melting point fell in the range of 65 to 72 °C.

`CC(C)OC(=O)Nc1ccc(-c2c(C#N)c3ccc(N4CCCCC4)cc3n2CC2CC2)cc1` [Compound 2892] displayed a melting point of 145 to 148 °C.

`CCCS(=O)(=O)Nc1ccc(-c2c(C#N)c3ccc(Oc4cccnc4Cl)cc3n2C2CC2)cc1` [Compound 2936] gave a melting point of 209 to 210 °C.

With `N#Cc1c(-c2ccc(NS(=O)(=O)C3CC3)cc2)n(C2CC2)c2cc(N3CCOCC3)ccc12` [Compound 2877], the melting point was 241 to 243 °C.

Compound `CCCS(=O)(=O)Nc1ccc(-c2c(C#N)c3cc(C(=O)N4CCOCC4)ccc3n2C2CCC2)cc1` [Compound 3098] showed a melting point of 128 to 129 °C.

For `N#Cc1c(-c2ccc(N3CCCCS3(=O)=O)cc2)n(C2CC2)c2cc(Oc3ncccn3)ccc12` [Compound 3216], the melting point is 251 to 256 °C.

Take `N#Cc1c(-c2ccc(NS(=O)(=O)NCC3CC3)cc2)n(C2CC2)c2cc(Oc3nccnc3Cl)ccc12` [Compound 2949]: the melting point is 181 to 183 °C.

Regarding `Cc1cc(-c2c(C#N)c3ccc(OCC(F)F)cc3n2C2CCC2)ccc1NC(=O)OC(C)C(F)(F)F` (stereo not shown) [Compound 3049], the melting point is 154 to 155 °C.

The compound `CCC(C)C(C)OC(=O)Nc1ccc(-c2c(C#N)c3ccc(OC4CCOC4)cc3n2C2CCC2)cc1` (stereo not shown) [Compound 1459] had a melting point of 183 to 184 °C.

In turn, `C[C@@H](OC(=O)Nc1ccc(-c2c(C#N)c3ccc(Oc4nccc(C(F)(F)F)n4)cc3n2C2CCC2)cc1)C1CC1` [Compound 2924] came in with a melting point of 119 to 121 °C.

The compound `COCCOc1ccc2c(C#N)c(-c3ccc(NC(=O)OC(C)C(F)(F)F)cc3)n(C(C)C)c2c1` (stereo not shown) [Compound 2686] came in with a melting point of 162 to 165 °C.

Turning to `CCCS(=O)(=O)Nc1ccc(-c2c(C#N)c3ccc(N4CCCC4)cc3n2C2CCC2)cc1` [Compound 2955], the melting point lay in the range of 229 to 234 °C.

The compound `Cc1ccccc1CNc1ccc(-c2c(C#N)c3ccc(OC4CCOCC4)cc3n2C2CCC2)cc1` [Compound 3121] came in with a melting point of 168 to 172 °C.

As to `CCOc1ccc2c(C#N)c(-c3ccc(Nc4ncccn4)cc3)n(CC3CC3)c2c1` [Compound 3252], the melting point lay in the range of 223 to 224 °C.

`CCCS(=O)(=O)Nc1ccc(-c2c(C#N)c3ccc(OC4CCOCC4)cc3n2C2CCC2)cc1` [Compound 2746]: the melting point was 185 to 187 °C.

With `C[C@@H](OC(=O)Nc1ccc(-c2c(C#N)c3ccc(-c4cccc(N5CCCC5)n4)cc3n2C2CCC2)cc1)C1CC1` [Compound 3258], the melting point was 250 to 252 °C.

On to `CCOc1ccc2c(C#N)c(-c3ccc(NC(=O)NCC(C)O)cc3)n(C3CCC3)c2c1` (stereo not shown) [Compound 1391], for which the melting point lay in the range of 195 to 200 °C.

Consider `CC(C)n1c(-c2ccc(N3CCCCS3(=O)=O)cc2)c(C#N)c2ccc(N3CCOCC3)cc21` [Compound 3215], for which the melting point fell in the range of 260 to 271 °C.

In the case of `CC(C)S(=O)(=O)Nc1ccc(-c2c(C#N)c3ccc(OC4COCOC4)cc3n2C2CCC2)cc1` [Compound 2920], the melting point fell in the range of 196 to 198 °C.

For the compound `C[C@@H](OC(=O)Nc1ccc(-c2c(C#N)c3ccc(Oc4ncccn4)cc3n2C2CCC2)cc1)C(F)(F)F` [Compound 2852], the melting point is 205 to 207 °C.

Consider `CCCS(=O)(=O)Nc1ccc(-c2c(C#N)c3ccc(Oc4nccc(C(F)(F)F)n4)cc3n2CC2CC2)c(C)c1` [Compound 2981], for which the melting point lay within 174 to 177 °C.

Consider `CCN(CC)C(=O)c1ccc2c(c1)c(C#N)c(-c1ccc(NC(=O)NC(C)C)cc1)n2C1CCC1` [Compound 3136], for which the melting point was 250 °C (dec.).

For the compound `CCCS(=O)(=O)Nc1ccc(-c2c(C#N)c3ccc(N4CCCC4=O)cc3n2C2CCC2)cc1` [Compound 3198], the melting point was in the range of 279 to 282 °C.

As for `CCN(CC)C(=O)c1ccc(-c2c(C#N)c3ccc(OCCOC)cc3n2C2CCC2)cc1` [Compound 2752], the melting point is 136 to 138 °C.

As for `N#Cc1c(-c2ccc(NS(=O)(=O)c3ccccc3)cc2)n(C2CCC2)c2cc(OC3CCOCC3)ccc12` [Compound 3091], the melting point fell in the range of 231 to 233 °C.

The compound `CC(OC(=O)Nc1ccc(-c2c(C#N)c3ccc(OCc4cnccn4)cc3n2C2CCC2)cc1)C(F)(F)F` (stereo not shown) [Compound 3021] showed a melting point of 195 to 196 °C.

In turn, `CCn1c(-c2ccc(NC(=O)NCCc3ccccc3)cc2)c(C#N)c2ccc(OCCOC)cc21` [Compound 1403] had a melting point of 168 to 171 °C.

`CCn1c(-c2ccc(NC(=O)OC(C)C)cc2)c(C#N)c2ccc(OC3CCS(=O)(=O)CC3)cc21` [Compound 3230] returned a melting point of 253 to 257 °C.

Compound `CC(C)Nc1ccc(-c2c(C#N)c3ccc(O[C@@H]4CCOC4)cc3n2C2CC2)cc1` [Compound 2818] had a melting point of 185 to 187 °C.

The values above are taken from patent publication US7772271B2 (priority 2004, dated 2010).
